A word on the IC50: it is the point on the concentration scale where inhibition reaches its midpoint. A lower IC50 goes with greater potency in that assay.

Starred links: 1 amine or outer side, 2 acyl side, 3 side chain; linkers in the order of their positions; H or OH if unused. Non-standard residues stand in square brackets, D forms with d. Residues, ends and D or L forms follow the SMILES beside them. *: point of attachment. Dolaproine = CO[C@@H]([C@@H]1CCCN1)[C@@H](C)C(=O)O; Hexanoyl(6-maleimido) = O=C1C=CC(=O)N1CCCCCC(=O)*; Dil = CC[C@H](C)[C@H](NC)[C@@H](CC(=O)O)OC; PABC = O=C(OCc1ccc(N[*:1])cc1)[*:2]; X1 = C[C@@H](N*)[C@@H](O)c1ccccc1; Cit = NC(=O)NCCC[C@H](N)C(=O)O; NMeV = CN[C@H](C(=O)O)C(C)C

This is an account of results in patent EP4722246A1, “TEM8-TARGETED ANTIBODY OR ANTIGEN-BINDING FRAGMENT THEREOF, AND USE THEREOF” (Inxmed (Nanjing) Co., Ltd., priority 2023, dated 2024).

The assay relates to HCT116. The experiment in a line: ADC in vitro cell killing assay (CCK-8). The assay is classed as cell-based, human. The note with it: HCT116, 72 h. The procedure: HCT116 (Cat: CBP60028, Cobioer Biosciences Co., Ltd.) in the logarithmic growth phase was trypsinized, plated in a 96-well plate at 3000 cells/well in 100 µL, and the plate was incubated in a 37°C, 5% CO2 incubator for 24 h. ADC was subjected to a 5-fold serial dilution with cell culture medium (Ham's F-12K, 10% FBS, AusGenex, Cat:FBS500-S) starting from 30000nM, yielding 10 concentration gradients. 10 µL of the diluted sample was added to the cell plate for mixing well, and the plate was incubated in a 37°C, 5% CO2 incubator for 72 h. 10 µL of Cell Counting Kit-8 (CellorLab, CX001) was added to the plate, and the plate was incubated in a 37 °C, 5% CO2 constant temperature incubator for 3 h. The absorbance value at 450 nm was measured with a microplate reader. Data was analyzed with Graphpad, with the in vitro killing activity of TEM8 antibody-drug conjugate shown in Table 5 and the IC50 curve shown in FIG. 4. Table 5: In vitro killing activity of TEM8 antibody-drug conjugate or linker + payload or payload

As for `CC[C@H](C)[C@@H]([C@@H](CC(=O)N1CCC[C@H]1[C@H](OC)[C@@H](C)C(=O)N[C@H](C)[C@@H](O)c1ccccc1)OC)N(C)C(=O)[C@@H](NC(=O)[C@@H](NC)C(C)C)C(C)C` [MMAE] (H-[NMeV]V[Dil][Dolaproine]-X1), the IC50 was determined as 14.8 nM.

`CC[C@H](C)[C@@H]([C@@H](CC(=O)N1CCC[C@H]1[C@H](OC)[C@@H](C)C(=O)N[C@H](C)[C@@H](O)c1ccccc1)OC)N(C)C(=O)[C@@H](NC(=O)[C@H](C(C)C)N(C)C(=O)OCc1ccc(NC(=O)[C@H](CCCNC(N)=O)NC(=O)[C@@H](NC(=O)CCCCCN2C(=O)C=CC2=O)C(C)C)cc1)C(C)C` [VcMMAE] ({Hexanoyl(6-maleimido)}-V[Cit][PABC][NMeV]V[Dil][Dolaproine]-X1) showed an IC50 of 1280 nM.
